# Legend:
# LC3 = assay: Autophagy in mouse epidermis (LC3-I to LC3-II conversion, Beclin-1); format: in vivo; conditions: FA-treated mouse skin
# Protocol: In accordance, we observed in FA-treated skin the conversion of light chain 3 (LC3) from its free form (LC3-I) to a membrane-bound state (LC3-II), a key step that initiates autophagy in mammalian cells (Klionsky et al, 2012). LC3-I to LC3-II conversion reached its maximum 8 h after FA treatment and paralleled with the increase of another autophagy marker Beclin-1, highest REDD1 expression and strongest repression of mTOR activity (FIGS. 2C, D).
# The whole-cell protein extracts were prepared using RIPA buffer with protease and phosphatase inhibitor cocktails (Thermo Scientific, Thermo Fisher Scientific Inc., Waltham, Mass., USA), resolved by SDS-PAGE on 4-20% gels and transferred to Odyssey nitrocellulose membranes (LI-COR Biosciences, Lincoln, Neb., USA). Membranes were blocked with Odyssey Blocking Buffer and incubated with primary antibodies overnight at 4° C., followed by IRDye® secondary antibodies (LI-COR Biosciences). LI-COR Odyssey Imager was used for the band visualization. Equal loading and adequate transfer to the membranes were verified by staining with Ponceau S (Sigma-Aldrich) and with anti-GAPDH (Sigma-Aldrich) antibody. We used Abs against: REDD1 (Proteintech Group, Inc., Chicago, Ill.), LC3B, phospho-rpS6Ser240/244, phospho-4E-BP1Thr37/46, phospho-GRSer211 (Cell Signaling Technology, Inc.), and GR (H-300 or M-20, Santa Cruz Biotechnology, Inc.).
# pri-miR-221 = assay: Q-PCR analysis of primary miR-221 in mouse epidermis; format: in vivo; conditions: 24 h after single FA application and after the first week of chronic treatment
# Protocol: FIG. 9. Inverse correlation between pri-miR-221 and REDD1 expression during glucocorticoid treatment. B6D2 mice were treated with FA topically as described in Materials and Methods, epidermis was harvested at indicated time points. A. Western blot analysis. B. Q-PCR analysis of primary miR-221. Data are expressed as the fold change (mean±SD) with respect to the controls (unpaired two-tailed t-test, n=3).
# Total RNA from murine epidermis, whole human skin, and cell cultures was isolated with RiboPure kit (Ambion, Life Technologies, Grand Island, N.Y., USA). Total RNA from murine s.c. adipose was isolated with RNeasy Lipid Tissue Kit (Qiagen, Valencia, Calif., USA). The RNA samples were treated with TURBOT™ DNase (Ambion). The gene expression was assessed using semi-quantitative two-step RT-PCR and quantitative Q-PCR. Reverse transcription was performed using 1 μg RNA, random hexamers, and M-MLV reverse transcriptase (Invitrogen, Life Technologies), according to manufacturer instructions. The gene-specific primers were designed with NCBI Primer-BLAST (data not shown, see Baida et al., EMBO, 2015, at Supplementary Table S4). […] For semi-quantitative PCRs, Taq DNA polymerase (Promega) was used, and PCR products were separated on 1.5% agarose gel and visualized using automated imaging system (Bio-Rad, Hercules, Calif., USA). […]
# [1] = test system: glucocorticoid-responsive genes in murine epidermis; assay: Genome-wide expression profiling of murine epidermis (microarray, Q-PCR validation); format: in vivo, mouse; conditions: FA
# Protocol: To investigate the global role of REDD1 in GR signaling, we performed genome-wide expression profiling of the epidermis of REDD1 and wild-type mice treated with vehicle (control) or FA using Illumina mouse whole-genome gene array (GEO Submission GSE59151). Gene expression was measured 24 h post-FA application, when both TA and TR are usually fully developed (Wu et al, 2004). Differential expression was identified based on the adjusted P-value threshold of 0.05.
# RNA samples were checked for quality and integrity with the Agilent 2100 bioanalyzer and used for microarray analysis. RNA amplification, labeling, and hybridization with the Mouse Whole-Genome Gene Expression BeadChips MouseRef-8 v2.0 (Illumina) were performed at the Genomics Core Facility at the Center for Genetic Medicine at Northwestern University according to Illumina protocols.
# Microarray processing was performed using the Limma package (Smyth, 2005), using the neqc function to perform background subtraction using the negative control probes, and quantile normalization using both positive and negative control probes. Differentially expressed probes were identified using the linear model implemented in Limma, applying an adjusted P-value threshold of 0.05. Q-PCR and microarray based gene expression values were compared using linear Pearson correlation.
# Gene ontology analysis was performed using the DAVID Bioinformatics resource tool (Huang et al, 2009a,b), submitting differentially expressed probes from each experiment, against the probe background of MouseRef 8. DAVID performs a hypergeometric test to identify overrepresented GO terms in a list of differentially expressed probes. Results are presented for categories with greater than or equal to threefold enrichment and P=0.01.
# FKBP51 and GILZ = assay: Q-PCR analysis of GR target genes FKBP51 and GILZ in HaCaT and CEM cells; format: cell-based, human; conditions: FA 1 uM 24 h
# Protocol: FIG. 13. Rapamycin inhibits GR transactivation. A, B. Q-PCR analysis of FKBP51 and GILZ expression in HaCaT (A) and CEM (B) cells. Cells were pretreated with solvent or Rapa (1 uM)×6 hrs and treated with solvent (Control) or FA (1 uM) for 24 h. A,B. Q-PCR results were normalized to the expression of the housekeeping Rp127 gene, and presented as fold of change compared to control cells. The means+/−SD calculated for three individual RNA samples/condition. a—Statistically significant difference (P<0.05) compared to control; b—Statistically significant differences (P<0.05) compared to FA treatment. C. Inhibitory effect of rapamycin on GRE.Luciferase reporter. […] The means+SD were calculated for three individual wells/group in one representative experiment (out of three experiments). a—Statistically significant differences (P<0.05) in comparison to vehicle treatment; b—Statistically significant differences (P<0.05) in comparison to FA treatment.
# Total RNA from murine epidermis, whole human skin, and cell cultures was isolated with RiboPure kit (Ambion, Life Technologies, Grand Island, N.Y., USA). […] The gene expression was assessed using semi-quantitative two-step RT-PCR and quantitative Q-PCR. […] For semi-quantitative PCRs, Taq DNA polymerase (Promega) was used, and PCR products were separated on 1.5% agarose gel and visualized using automated imaging system (Bio-Rad, Hercules, Calif., USA). […]
structure (smiles),measurement,setting,value
"CC1(C)O[C@@H]2C[C@H]3[C@@H]4C[C@H](F)C5=CC(=O)C=C[C@]5(C)[C@@]4(F)[C@@H](O)C[C@]3(C)[C@]2(C(=O)CO)O1 [FA, fluocinolone acetonide]",time of maximum LC3-I to LC3-II conversion after treatment,LC3,8 h
same,pri-miR-221 level,pri-miR-221,significantly increased
same,gene categories up-regulated (GO analysis),[1]; REDD1 KO keratinocytes,"up-regulated genes related to autophagy, endosomes, and PI3K signaling"
same,Cd74 and H2-Ab1 expression (Q-PCR array validation),[1]; wild-type and REDD1 KO epidermis,similarly down-regulated
same,gene categories inhibited (GO analysis),[1]; wild-type but not REDD1 KO skin,inhibited genes related to DNA replication
same,FKBP51 and GILZ expression,FKBP51 and GILZ,strongly activated
